According to patent US9018213B2, “Alicyclic[c] benzopyrone derivatives and uses thereof” (Huazhong University of Science & Technology, priority 2011, dated 2015):

Columns and labels:
Catalepsy assay = conditions: both, Kunming (KM), mouse, po
Experimental: (§1) Healthy mice of Kunming breed (with half male and half female, (22±2) g) were provided by Qinglongshan Animal Cultivation Center, Nanjing.
(§2) The durations for the mice to maintain the posture with the two forepaws on the bars were recorded, and 30 s of spasticity without moving was considered as the positive response. In the case the forepaws of the mice were not put down persistently, the observation was terminated at 60 s. The numbers of animals with positive response in each of the compound dosage groups were counted.

mice of Kunming breed = assay: MK-801 induced high activity; format: in vivo; conditions: for ED50: Mus musculus; for ED50 / MK-801 induced high activity ED50: po, mice
Experimental: Healthy mice of Kunming breed (with half male and half female, (20±2) g) were provided by Qinglongshan Animal Cultivation Center, Nanjing.
Ascorbic acid was provided by Sinopharm Chemical Reagent Co. Ltd.
Tween 80, with the concentration of 10%.
Subsequently, the spontaneous activities of the mice of each group in 90 min were measured.

5HT2C receptor = 5HT2C receptor (Rattus norvegicus (Rat), UniProt P08909); assay: 5HT2C receptor binding assay ([3H]-mesulergine)
5HT2C receptor, sequence (P08909 33-460): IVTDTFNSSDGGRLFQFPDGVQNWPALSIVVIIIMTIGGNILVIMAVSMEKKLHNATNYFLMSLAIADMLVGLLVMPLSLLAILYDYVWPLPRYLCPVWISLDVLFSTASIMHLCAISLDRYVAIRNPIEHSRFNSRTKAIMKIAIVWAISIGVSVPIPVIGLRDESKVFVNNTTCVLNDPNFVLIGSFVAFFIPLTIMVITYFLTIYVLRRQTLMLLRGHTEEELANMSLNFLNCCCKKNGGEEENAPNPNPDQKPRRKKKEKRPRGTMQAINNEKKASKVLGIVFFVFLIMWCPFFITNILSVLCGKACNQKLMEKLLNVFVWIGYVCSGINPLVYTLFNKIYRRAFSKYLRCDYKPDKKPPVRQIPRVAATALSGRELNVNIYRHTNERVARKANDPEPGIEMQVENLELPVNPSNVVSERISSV

5HT2A receptor = 5HT2A receptor (Rattus norvegicus (Rat), UniProt P14842); assay: 5HT2A receptor binding assay ([3H]-Ketanserin)
5HT2A receptor, sequence (P14842 whole entry): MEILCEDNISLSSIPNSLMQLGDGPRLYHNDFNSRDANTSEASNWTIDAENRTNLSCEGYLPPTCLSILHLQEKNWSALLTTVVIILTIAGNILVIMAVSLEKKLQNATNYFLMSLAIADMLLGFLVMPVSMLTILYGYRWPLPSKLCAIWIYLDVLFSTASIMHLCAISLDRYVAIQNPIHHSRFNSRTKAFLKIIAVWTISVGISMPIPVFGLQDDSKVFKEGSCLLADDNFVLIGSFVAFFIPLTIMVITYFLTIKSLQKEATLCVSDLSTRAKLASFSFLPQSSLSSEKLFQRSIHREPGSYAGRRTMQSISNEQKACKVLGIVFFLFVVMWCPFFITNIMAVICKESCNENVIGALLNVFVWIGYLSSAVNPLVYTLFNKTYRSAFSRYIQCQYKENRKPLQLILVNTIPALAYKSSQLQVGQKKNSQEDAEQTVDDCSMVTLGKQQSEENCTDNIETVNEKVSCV

D3 receptor = D3 receptor (Homo sapiens (Human), UniProt P35462); assay: D3 receptor competitive binding assay ([3H]-Spiperone, HEK-293 cells)
D3 receptor, sequence (P35462 whole entry): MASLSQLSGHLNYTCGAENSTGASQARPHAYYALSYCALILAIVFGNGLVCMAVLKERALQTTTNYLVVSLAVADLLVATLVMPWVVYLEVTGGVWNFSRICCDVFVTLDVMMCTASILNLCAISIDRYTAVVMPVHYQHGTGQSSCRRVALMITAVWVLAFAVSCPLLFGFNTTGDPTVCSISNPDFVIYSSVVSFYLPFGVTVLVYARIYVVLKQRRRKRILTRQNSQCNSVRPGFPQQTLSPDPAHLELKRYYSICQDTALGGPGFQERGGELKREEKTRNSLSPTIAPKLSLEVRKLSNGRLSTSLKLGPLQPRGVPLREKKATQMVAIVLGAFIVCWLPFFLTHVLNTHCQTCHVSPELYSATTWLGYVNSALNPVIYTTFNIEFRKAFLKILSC
Experimental: After the cells were centrifuged at 1000 rpm for 5 min, the supernatant was discarded, and the cell pellet was collected and stored in a -20° C. fridge for reservation. It was re-suspended with Tris-Cl (pH 7.4) in the assay. […] Tris was divided into aliquots by […] Technology Inc. Procedures Competitive binding test for receptors: 20 μl of each of the test compounds and 20 μl of the radioactive ligand together with 160 μl of the receptor proteins were added into the reaction tubes, and the final concentrations of the test compound and the positive drug were all 10 μmol/L. After 50 min of incubation in 30° C. water bath, the tubes were immediately moved to ice bath to terminate the reactions. GF/C glass fiber filter papers were used for rapid sucking filtration on a Millipore cell sample collector, elution buffer (50 mM Tris-HCl, PH 7.4) was applied for 3 ml×3 times, and microwave was applied for 4-5 min for drying. The filter papers were moved into 0.5 ml centrifuge tubes, and 500 μl of lipid-soluble scintillation solution was added. The tubes were allowed to stand still for over 30 min in dark, and the intensities of radioactivity were measured by a counter.

KM mice [1] = assay: Apomorphine induced clambering assay of mice; format: in vivo; conditions: for ED50: Mus musculus, read-out: apomorphine induced clambering ED50; for Scoring (value), apomorphine induced clambering: x ± s, n = 10
Experimental: Apomorphine Induced Clambering Assay of Mice
Healthy KM mice (male, with body weight of 18-22 g) were provided by Qinglongshan Animal Cultivation Center, Nanjing.
Apomorphine provided by Sigma Company was dissolved in 0.9% NaCl (containing 0.1% vitamin C) before use, and was freshly formulated before use.
Vitamin C, F20061113, was provided by Sinopharm Chemical Reagent Co. Ltd.
Sodium chloride injection, H32026305, was provided by Xuzhou No. 5 Pharmaceutical Factory Co. Ltd.
Instruments: self-made clambering cage, chronograph.
Procedures: apomorphine induced clambering assay of mice
After 5 min of adaptation, the behaviors of the mice at 10-11, 20-21, and 30-31 min after the injection of apomorphine were observed and scored. Scoring criteria: 4 paws on the floor was scored as 0; 2 forepaws on the cage was scored as 1; and 4 paws on the cage was scored as 2.

5HT1A receptor = 5HT1A receptor (Rattus norvegicus (Rat), UniProt P19327); assay: 5HT1A receptor binding assay (3H-8-OH-DPAT)
5HT1A receptor, sequence (P19327 whole entry): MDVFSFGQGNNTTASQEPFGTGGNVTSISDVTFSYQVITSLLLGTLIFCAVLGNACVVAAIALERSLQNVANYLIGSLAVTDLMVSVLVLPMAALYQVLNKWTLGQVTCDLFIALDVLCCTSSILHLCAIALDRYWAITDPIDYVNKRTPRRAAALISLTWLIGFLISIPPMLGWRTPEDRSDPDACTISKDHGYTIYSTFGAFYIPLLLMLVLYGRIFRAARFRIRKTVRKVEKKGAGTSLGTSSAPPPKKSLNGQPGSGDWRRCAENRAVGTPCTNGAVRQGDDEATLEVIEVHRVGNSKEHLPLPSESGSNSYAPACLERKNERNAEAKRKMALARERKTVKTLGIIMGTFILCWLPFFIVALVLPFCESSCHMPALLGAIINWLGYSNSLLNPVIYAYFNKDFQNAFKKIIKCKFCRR
Experimental: Preparation of 5HT1A Membrane
Incubation at 37° C. was conducted for 10 min, the weight of the tubes were adjusted using a balance after incubation. […] Centrifugation was conducted and repeated 3 times.
Materials for the Receptor Binding Assay

in vivo = conditions: both sexes, mouse, in vivo; po, mice, single intragastric administration; read-out: LD50
Experimental: (§3) Limit Test of Sequential Assay
(§4) KM mice (half male and half female) were randomly divided into several groups (with 2-5 mice in each group), which were respectively the 2000 mg/kg groups for each compound, and the solvent group. 0.2 ml/10 g were administered intragastrically. The death of the animals in 3 days were observed. (In the case 3 or more animals survived in 3 days without notable abnormity in their life states, the observation was continued until the assay was completed in 7 days. In the case 3 or more animals died in 3 days, the median lethal dose method was used to determine the LD50).
(§5) Pre-Assay for the Median Lethal Dose Method
(§6) 0.2 ml/10 g were administered intragastrically, and the death of the animals in 1-3 days were observed.

D2 receptor = D2 receptor (Rattus norvegicus (Rat), UniProt P61169); assay: D2 receptor inhibition binding assay (3H-Spiperone)
D2 receptor, sequence (P61169 whole entry): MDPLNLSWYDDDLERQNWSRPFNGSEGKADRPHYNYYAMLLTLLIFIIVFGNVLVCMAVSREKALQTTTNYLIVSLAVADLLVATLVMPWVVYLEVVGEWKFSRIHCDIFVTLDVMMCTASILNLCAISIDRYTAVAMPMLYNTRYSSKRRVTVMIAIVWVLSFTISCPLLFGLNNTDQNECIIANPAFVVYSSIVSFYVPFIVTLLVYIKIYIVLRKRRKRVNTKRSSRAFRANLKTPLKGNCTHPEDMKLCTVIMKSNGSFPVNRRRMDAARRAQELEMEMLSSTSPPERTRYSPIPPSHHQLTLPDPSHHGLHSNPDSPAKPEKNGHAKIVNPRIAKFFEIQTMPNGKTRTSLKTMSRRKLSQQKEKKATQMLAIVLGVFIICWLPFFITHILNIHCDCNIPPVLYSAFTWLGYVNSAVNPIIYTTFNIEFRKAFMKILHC
Experimental: Rats were sacrificed by cervical dislocation on ice. Cerebral cortex was rapidly taken, and 2 cerebral cortexes were combined into a centrifuge tube, to which 3 ml of buffer (0.05 M Tris-HCl buffer, containing NaCl 120 mM, KCl 5 mM, MgCl2 1 mM, CaCl2 1 mM) was added, homogenization was conducted for 3-4 s at level 4 for four times, and then 5 ml of buffer was then added. The weight of the homogenized tubes were adjusted using a balance, and centrifugation was conducted at 12000 r, 4° C. for 20 min. The supernatant was discarded, and 3 ml of B solution was added. Vortex mixer was used for blending, and then 5 ml of B solution was added. Centrifugation was conducted and repeated 3 times. After the centrifugations, the supernatant was discarded, and the pellets were stored at −80° C. for future use.
Beckman LS-6500 Multi-function Liquid Scintillation Counter was used.
(1) The prepared membrane was first applied with appropriate amount of homogenized liquid, and homogenizer was used for evenly dispersing. 15 tubes were mixed into a 100 ml container, and appropriate amount of homogenized liquid was added to give 50 ml of membrane suspension, which was reserved for future use.
(2) 100 μL of membrane preparation and 100 μL of buffer were added into each reaction tube.
(3) 100 μL of homogenized liquid was added into the total binding tube (TB), 100 μL of Butaclamol (final concentration 10^−5 M) was added into the non-specific binding tube (NB), and 100 μL of the test compound (final concentration 10^−5 M) was added into the specific binding tube (SB) for each compound.
(5) Each of the reaction tubes was incubated at 37° C. for 20 min. After the reaction was completed, the bound ligands were rapidly filtered under reduced pressure, and the ice-chilled assay buffer was used for adequate washing. The filter was taken out and put into a 3 ml scintillation vial, and 2 ml of toluene scintillation solution was added and blended.
(6) The scintillation vials were put into Liquid Scintillation Counter for counting. Inhibitory rate (I %)=(Total binding tube cpm−compound cpm)/(Total binding tube cpm−non-specific binding tube cpm)×100%
Each assay for the compounds was conducted in duplicate.

KM mice [2] = assay: in vivo; conditions: po, mice, single intragastric administration
Experimental: as §3, §4, §5, §6

KM mice [3] = assay: Catalepsy assay; conditions: mouse, in vivo
Experimental: as §1, §2

Structure (SMILES)	ED50 (Catalepsy assay; in vivo)	ED50 (mice of Kunming breed)	IC50 (5HT2C receptor)	IC50 (5HT2A receptor)	IC50 (D3 receptor)	ED50 (KM mice [1]; po, mice)	Scoring (value), apomorphine induced clambering (KM mice [1]; dosage 0.1 mg/kg)	Scoring (value), apomorphine induced clambering (KM mice [1]; dosage 0.3 mg/kg)	Scoring (value), apomorphine induced clambering (KM mice [1]; dosage 1 mg/kg)	Scoring (value), apomorphine induced clambering (KM mice [1]; dosage 3 mg/kg)	IC50 (5HT1A receptor)	LD50 (in vivo)	IC50 (D2 receptor)	Scoring (value), apomorphine induced clambering (KM mice [1]; dosage 10 mg/kg)	also measured
O=c1oc2c(Cl)c(OCCCCN3CCC(c4noc5cc(F)ccc45)CC3)ccc2c2c1CCC2 [Compound 15, 7-{4-[4-(3-(6-fluoro-benzisoxazole)-1-piperidyl)-butoxy]}-6-chloro-2,3-dihydro-1H-cyclopenteno[c]benzopyran-4-one]	98.9 mg/kg	1.25 mg/kg	1890 nM	0.29 nM	8.6 nM	0.56 mg/kg	4.75 ± 1.58	3.38 ± 0.92	3.00 ± 1.60	0.50 ± 0.76	0.73 nM	> 2000 mg/kg	8.1 nM		
CN1CCN(C2=Nc3cc(Cl)ccc3Nc3ccccc32)CC1 [clozapine]												150 mg/kg		5.50 ± 0.76	ED50 (Catalepsy assay): > 50 mg/kg; MK-801 induced high activity ED50 (mice of Kunming breed): 2.28 mg/kg; Scoring (value), apomorphine induced clambering (KM mice [1]; dosage 17.4 mg/kg): 4.60 ± 2.07; Scoring (value), apomorphine induced clambering (KM mice [1]; dosage 23 mg/kg): 3.70 ± 2.21; Scoring (value), apomorphine induced clambering (KM mice [1]; dosage 30 mg/kg): 0.60 ± 1.07; apomorphine induced clambering ED50 (KM mice [1]; po, mice): 17.92 mg/kg; LD50 (KM mice [2]): 150 mg/kg
O=c1oc2cc(OCCCN3CCC(c4noc5cc(F)ccc45)CC3)ccc2c2c1CCC2 [Compound 5, 7-{3-[4-(3-(6-fluoro-benzisoxazole)-1-piperidyl)-n-propoxy]}-2,3-dihydro-1H-cyclopenteno[c]benzopyran-4-one]	168 mg/kg	0.35 mg/kg	1160 nM	0.56 nM	8.9 nM	0.68 mg/kg	4.60 ± 2.07	3.00 ± 1.94	0.90 ± 1.20	0.20 ± 0.63	0.03 nM	> 2000 mg/kg	5.6 nM		
COc1ccccc1N1CCN(CCCCOc2ccc3c4c(c(=O)oc3c2)CCCC4)CC1 [Compound 19, 3-{4-[4-(2-methoxyphenyl)piperazin-1-yl]-butoxy}-7,8,9,10-tetrahydrobenzo[c]benzopyran-6-one]	156 mg/kg	2.35 mg/kg	1120 nM	1.8 nM	13.2 nM	0.15 mg/kg		4.90 ± 1.10	1.50 ± 1.20	0.40 ± 0.97	4.2 nM	> 2000 mg/kg	3.6 nM		Scoring (value), apomorphine induced clambering (KM mice [1]; dosage 0.52 mg/kg): 0.75 ± 1.04
COc1ccccc1N1CCN(CCCCOc2ccc3c4c(c(=O)oc3c2)CCC4)CC1 [Compound 7, 7-{4-[4-(2-methoxyphenyl)piperazin-1-yl]-butoxy}-2,3-dihydro-1H-cyclopenteno[c]benzopyran-4-one]	261 mg/kg	2.05 mg/kg	1300 nM	0.78 nM	7.4 nM	0.13 mg/kg				3.50 ± 1.96	0.08 nM	> 2000 mg/kg	2.1 nM	2.60 ± 1.58	EPS at effective dosage (in words) (KM mice [3]): did not cause EPS at effective dosage; effect on MK-801 induced high activity (in words) (mice of Kunming breed; compared to the model group): significantly improve; affinity for 5HT2C (in words) (5HT2C receptor; in vitro assay): lower affinity; affinity for 5-HT2A receptor (in words) (5HT2A receptor; in vitro assay): relatively stronger affinities; affinity for D3 receptor (in words) (D3 receptor; in vitro assay): relatively stronger affinities; effect on apomorphine induced clambering symptoms (in words) (KM mice [1]; compared to the model group): effectively improve; Scoring (value), apomorphine induced clambering (KM mice [1]; dosage 30 mg/kg): 1.80 ± 1.40; Scoring (value), apomorphine induced clambering (KM mice [1]; dosage 100 mg/kg): 0.00 ± 0.00; affinity for 5-HT1A receptor (in words) (5HT1A receptor; in vitro assay): relatively stronger affinities; affinity for D2 receptor (in words) (D2 receptor; in vitro assay): relatively stronger affinities
O=c1oc2c(Cl)c(OCCCCN3CCN(c4nsc5ccccc45)CC3)ccc2c2c1CCC2 [Compound 14, 7-{4-[4-(3-(1,2-benzisothiazole)-1-piperazinyl)-n-butoxy]}-6-chloro-2,3-dihydro-1H-cyclopenteno[c]benzopyran-4-one]	189 mg/kg	0.82 mg/kg	1490 nM	0.82 nM	15.1 nM	0.25 mg/kg	5.30 ± 1.25	2.10 ± 1.85	1.25 ± 1.75	0.25 ± 0.71	0.86 nM	> 2000 mg/kg	10.1 nM	0.80 ± 1.40	
O=C(CCCN1CCC(O)(c2ccc(Cl)cc2)CC1)c1ccc(F)cc1 [haloperidol]						0.1 mg/kg	4.50 ± 1.78	0.70 ± 0.82	0.60 ± 1.58			20 mg/kg			ED50 (Catalepsy assay): 0.44 mg/kg; MK-801 induced high activity ED50 (mice of Kunming breed): 7.42 mg/kg; Scoring (value), apomorphine induced clambering (KM mice [1]; dosage 0.13 mg/kg): 1.50 ± 1.27; Scoring (value), apomorphine induced clambering (KM mice [1]; dosage 0.174 mg/kg): 2.20 ± 1.69; Scoring (value), apomorphine induced clambering (KM mice [1]; dosage 0.23 mg/kg): 0.80 ± 0.79; LD50 (KM mice [2]): 20 mg/kg
